Assays:
[1] = Rabbit Cornea Homogenate stability (esterase) assay, Method 2; type: in vitro ADME; conditions: for Esterase % Lifitegrast formation at 45 min: 37° C., Method 2 (DPBS pH 7.4); for API Formation rate (%/min): Method 2
Description: (§1) Determining Rabbit Cornea Homogenate stability of the test compounds was performed using HPLC-MS or UPLC-MS. The assay was performed at two concentrations of Rabbit Cornea Homogenate (0.15 mg/mL and 0.45 mg/mL total protein) so that any hydrolysis observed can be assigned as esterase dependent or not.
(§2) Three to five rabbit corneas (e.g. New Zealand Whites (NZW) or Dutch Belted (DB)) of approx. 50 mg each were sliced and scraped with a scalpel and tweezers until reduced to small (1-3 mm), thin pieces. These were transferred into a glass vial containing approximately 2 mL of cold DPBS pH 7.4 buffer.
(§3) Sample was cooled intermittently on ice and shear homogenized for 3 minutes, then centrifuged for 3 min at 13,000 g. The supernatant was pipetted off into a vial, and total protein concentration determined at 280 nm. Sample was stored at −78° C.
10 mM Compound DMSO stocks were diluted to 10 μM in a glass vial: 10 μL of 10 mM Compound stock was added to 9,990 μL DPBS, pH 7.4 buffer. Esterase homogenate was diluted to 300 ng/μL and 900 ng/μL in DPBS. […]
A heater shaker was set to 37° C. Into a suitable 96 well plate (Run Plate), 80 μL of 300 or 900 ng/μL esterase homogenate was pipetted into two rows as compounds were analyzed in duplicate (0 min, 2 min, 5 min, 10 min, 20 min and 45 min). The plate was sealed and then warmed at 37° C. for 5 min.
Two 96 shallow-well plates were placed on ice (Kill Plates). To these, 180 μL of 60:40 MeCN-H2O+0.1% acetic acid were added to required rows. The plates were sealed to minimise evaporation.
To both rows of the Run Plate, 80 μL of 10 μM compound solution was added. At the appropriate time point, 20 μL of the assay mixture was added to the matching kill plate well containing 180 μL of 60:40 cold MeCN-H2O+0.1% acetic acid. For lipoic acid analysis, samples were analysed as soon as practicable by LCMS (Waters Xevo TQ-S). For parent conjugate and parent analysis the samples were diluted further 1 in 10: 20 μL supernatant was added to 180 μL of 50:50 MeCN—H2O.
Parent conjugate, parent and keratolytic concentrations were determined against appropriate standard response curves and the half-life (T½) of the parent conjugate was calculated using the peak area or the measured concentration of the parent conjugate at each time point in the linear region of the log-linear plot.

[2] = Aqueous hydrolysis stability assay, Method 2; type: physicochemical; conditions: Method 2: DPBS pH 7.4, 37° C.
Description: (§4) Determination of aqueous stability of the test compounds was performed using HPLC-MS or UPLC-MS. A test compound 10 mM stock solution was prepared in DMSO. Half-life (T1/2) of the parent conjugate is calculated using the peak area of the parent conjugate at each time point in the linear region of the log-linear plot.
10 μL of the DMSO stock solution is dissolved in 990 μL of DPBS pH 7.4 buffer to prepare 100 μM solution. A further dilution is made by dissolving 75 μL of 100 μM stock solution into 225 μL of DPBS. Final DMSO concentration is 0.25%. The solution is kept at 37° C. and injected without delay into the LCMS (Waters Xevo XSQ-ToF). Additional injections are performed at appropriate time points.

[3] = system: patients with dry eye and delayed tear clearance; conditions: 0.5% ophthalmic suspension, QID, 4 weeks, 64 patients (Pflugfelder et al 2004); cited from earlier work
[4] = Rabbit Cornea Homogenate stability (esterase) assay, Method 1; type: in vitro ADME; conditions: for Esterase % Lifitegrast formation at 45 min: 37° C., Method 1 (50 mM HEPES pH 7.5); for Esterase % keratolytic agent formation at 45 min / API Formation rate (%/min): Method 1
Description: as §1, §2, §3
10 mM Compound stocks were diluted to 100 μM in a 96 deep-well plate: 10 μL of 10 mM Compound stock was added to 990 μL 50 mM HEPES, pH 7.5 buffer. Compounds were further diluted to 10 μM: 100 μL of 100 μM compound was added to 900 μL 50 mM HEPES, pH 7.5 buffer. Esterase homogenate was diluted to 300 ng/μL and 900 ng/μL.
A heater shaker was set to 37° C. Into a suitable 96 well plate (Run Plate), 75 μL of 300 or 900 ng/μL esterase homogenate was pipetted into each of the required wells (2 min, 5 min, 10 min, 20 min and 45 min). The plate was sealed and then warmed at 37° C. for 5 min.
Another 96 well PCR plate was put on ice (Kill Plate). To this was added 100 μL of MeCN to each well, labelled 0 min 2 min, 5 min, 10 min, 20 min and 45 min. The plate was covered to minimize evaporation.
For the T=0 sample only, to the 100 μL cold MeCN stop solution was added 50 μL of 300 or 900 ng/μL esterase homogenate followed by 50 μL of 10 μM compound solution. For the remaining timepoints, 75 μL of 10 μM compound solution was added to the Run Plate starting from T=45 min row and ending with T=2 min row. At the appropriate time point, 100 μL of the assay mixture was added to the matching kill plate well containing 100 μL of cold MeCN. Samples were analyzed as soon as practicable by LCMS (Waters Xevo TQ-S or Micromass Ultima).
Parent conjugate and parent concentrations were determined against appropriate standard response curves and the half-life (T½) of the parent conjugate was calculated using the peak area of the parent conjugate at each time point in the linear region of the log-linear plot.

[5] = Aqueous hydrolysis stability assay, Method 1; type: physicochemical; conditions: 45 min; Method 1: 50 mM HEPES pH 7.5 or 1:1 acetonitrile:water, room temperature
Description: as §4
10 μL of the DMSO stock solution was dissolved in 990 μL of 50 mM HEPES pH 7.5 buffer or 1:1 (v/v) of acetonitrile:water to make a 100 μM solution. Final DMSO concentration was 1%. The solution was kept at room temperature and injected without delay into the LCMS (Waters Xevo TQ-S or Micromass Ultima). Additional injections were performed at appropriate time points.

[6] = system: human peripheral blood mononuclear cells; conditions: in vitro; cited from earlier work
[7] = system: human T-cell line; conditions: in vitro; cited from earlier work
[8] = Cornea Homogenate Conc 0.15 mg/mL
[9] = Cornea Homogenate Conc 0.45 mg/mL

With `CC(=O)SCC(=O)OC(C)OC(=O)[C@H](Cc1cccc(S(C)(=O)=O)c1)NC(=O)c1c(Cl)cc2c(c1Cl)CCN(C(=O)c1ccc3ccoc3c1)C2` (some centres unmarked) [Compound 31] the “Esterase % Lifitegrast formation at 45 min” value [1, 8] was “D (percent API formation >75%)”, the “API Formation rate (%/min)” value [1, 8] was “d (API formation rate >1.5%/min)” and the “Esterase % Lifitegrast formation at 45 min” value [1, 9] was “D (percent API formation >75%)”. For the same compound, the “API Formation rate (%/min)” value [1, 9] was “d (API formation rate >1.5%/min)” and the “Hydrolytic % Lifitegrast formation at [time]” value ([2]; 60 min) was “C [60 min] (percent API formation >4%)”.

In the case of `CCOC(=O)O[C@]1(C(=O)OCCl)CC[C@H]2[C@@H]3CCC4=CC(=O)C=C[C@]4(C)[C@H]3[C@@H](O)C[C@@]21C` [loteprednol etabonate], the “improving some signs and symptoms versus vehicle” value [3] is given as “more effective than its vehicle”.

For `CC(=O)N[C@@H](CS)C(=O)OC(C)OC(=O)[C@H](Cc1cccc(S(C)(=O)=O)c1)NC(=O)c1c(Cl)cc2c(c1Cl)CCN(C(=O)c1ccc3ccoc3c1)C2` (some centres unmarked) [Compound 5], the “Esterase % Lifitegrast formation at 45 min” value [4, 8] was “A (percent active pharmaceutical ingredient (API) formation <25%)”, the “Esterase % keratolytic agent formation at 45 min” value [4, 8] was “A (percent active pharmaceutical ingredient (API) formation <25%)” and the “API Formation rate (%/min)” value [4, 8] was “a (API formation rate <0.5%/min)”. For the same compound, the “Esterase % Lifitegrast formation at 45 min” value [4, 9] was “A (percent active pharmaceutical ingredient (API) formation <25%)”, the “Esterase % keratolytic agent formation at 45 min” value [4, 9] was “A (percent active pharmaceutical ingredient (API) formation <25%)” and the “API Formation rate (%/min)” value [4, 9] was “a (API formation rate <0.5%/min)”. The “Hydrolytic % Lifitegrast formation at [time]” value [5] was “C [45 min] (percent API formation >4%)”.

For `CS(=O)(=O)c1cccc(C[C@H](NC(=O)c2c(Cl)cc3c(c2Cl)CCN(C(=O)c2ccc4ccoc4c2)C3)C(=O)O)c1` [lifitegrast], the “inhibition of secretion of inflammatory cytokines” value [6] is given as “may inhibit secretion of inflammatory cytokines” and the “inhibition of T-cell adhesion to ICAM-1” value [7] is given as “may inhibit T-cell adhesion to ICAM-1”.

In the case of `CC(OC(=O)CCC(=O)O)OC(=O)[C@H](Cc1cccc(S(C)(=O)=O)c1)NC(=O)c1c(Cl)cc2c(c1Cl)CCN(C(=O)c1ccc3ccoc3c1)C2` (some centres unmarked) [Compound 45], the “Esterase % Lifitegrast formation at 45 min” value [1, 8] is reported as “C (percent API formation 51% to 75%)”, the “API Formation rate (%/min)” value [1, 8] is reported as “c (API formation rate 1.0-1.5%/min)” and the “Esterase % Lifitegrast formation at 45 min” value [1, 9] is reported as “C (percent API formation 51% to 75%)”. The “API Formation rate (%/min)” value [1, 9] was “c (API formation rate 1.0-1.5%/min)” and the “Hydrolytic % Lifitegrast formation at [time]” value ([2]; 44 min) was “C [44 min] (percent API formation >4%)”.

Source: patent publication US20230399317A1, “COMPOUNDS AND METHODS FOR THE TREATMENT OF OCULAR DISORDERS” (Azura Ophthalmics Ltd., priority 2020, published 2023)
